In paper PMC10859961, “Ir(III) Half-Sandwich Photosensitizers with a π-Expansive Ligand for Efficient Anticancer Photodynamic Therapy” (Journal of Medicinal Chemistry, 2024):
Read-outs that look alike come from different tables or passages of the source.

How the values were obtained:
calf thymus DNA (CT-DNA) = assay: Competitive EtBr displacement assay; type: binding; settings: CT-DNA saturated with EtBr; 1 h, room temperature; read-out: C50 (50% reduction of EtBr fluorescence)
Method: To investigate the capacity of the complexes to intercalate into DNA, the competitive ethidium displacement assay was carried out as previously described[149] with minor modifications. Stock solutions of 20 μM calf thymus DNA (CT-DNA) and 25 μM Ethidium bromide (EtBr) were prepared in saline TE (50 mM NaCl, 10 mM tris(hydroxymethyl) aminomethane–HCl, 0.1 mM ethylenediaminetetracetic acid (EDTA), pH 7.4). Serial dilutions of metal complexes were prepared at concentrations ranging from 20 to 400 μM from a 1 mM stock solution containing 20% DMSO. The assay was carried out by mixing 25 μL of CT-DNA and 25 μL of EtBr with 50 μL of each compound dilution, on a black 96-well plate. The plate was incubated at room temperature for 1 h and the fluorescence was measured on a Synergy 4 microplate reader (Biotek, Winooski), with excitation wavelength set to 500 nm, and emission wavelength set to 530–800 nm. The fluorescence emission at 590 nm was used to measure the C50, corresponding to the concentration of compound required to induce a 50% decrease in the fluorescence of the EtBr. Experiments were performed in triplicate.

[1] = Photocatalytic NADH oxidation (UV-vis); type: biochemical; set-up: key: TON = ΔNADH concentration after 1 h / photocatalyst concentration; settings: first hour, complex 2.5 μM, NADH 100 μM
Method: Fresh stock solutions of the complexes at 7.50 μM in H2O/MeOH mixture (97.5/2.5, v/v) and NADH at 300 μM in H2O/MeOH mixture (97.5/2.5, v/v) were prepared. In a quartz cell, 1 mL of complex solution, 1 mL of NADH solution, and 1 mL of solvent mixture were mixed to prepare a final solution with 2.50 μM complex and 100 μM NADH (complex/NADH rate = 1/40). The solutions were studied by recording UV–vis absorption spectra in dark conditions and under blue light irradiation (λexc = 470 nm, “Medusa” photoreactor) at ambient temperature and various time intervals for 8 h. In addition, a solution of NADH at 100 μM was studied under blue light irradiation to confirm its photostability. The photocatalytic rate of the photosensitizers was evaluated by monitoring its absorbance decrease at 340 nm, which correspond to NADH oxidation.
The turnover numbers (TONs) of complexes were calculated by measuring the absorption difference at 340 nm after 1 h of reaction. TON was calculated from the difference in NADH concentration after 1 h divided by the concentration of photocatalyst (eq 5), where b is the optical path length (1 cm). The concentration of NADH was obtained using the extinction coefficient ε340 = 5751 M^–1 cm^–1.[40],[148] [drawing 26] 5

A549 cancer cells = assay: MTT cell viability assay, dark or photoactivated; type: cell-based, human; settings: A549; for IC50: 4 h incubation; for IC50 / PI green light (IC50,dark/IC50,light) / PI red light (IC50,dark/IC50,light) / PI blue light (IC50,dark/IC50,light): MTT; for PI green light (IC50,dark/IC50,light): green light 530 nm; for PI green light (IC50,dark/IC50,light) / PI red light (IC50,dark/IC50,light) / PI blue light (IC50,dark/IC50,light): 24.1 J cm^–2; for PI/Dose: dose 24.1 J cm‐2, PI from MTT; for PI red light (IC50,dark/IC50,light): red light 655 nm; for PI blue light (IC50,dark/IC50,light): blue light 460 nm
Method: Cells were cultured in 96-well plates at a density of 3000 (A549), 2500 (HeLa), or 5000 (PC-3, 1BR.3.G, and MRC-5) cells per well in cell culture medium and allowed to attach for 24 h. Solutions of the complexes at different concentrations were prepared for cell treatments. In all cases, the solid compounds were weighed using an analytical balance (Mettler Toledo AX205DR) to ensure precise measurements. Subsequently, 5 mM solutions were prepared using DMSO. Solutions were then diluted in water to reach a concentration of 1 mM and then, aliquots were taken and diluted in culture medium to obtain solutions ranging from 0 to 50 μM. […] The cells were treated with these solutions in dark conditions or following the photoactivation protocol (see below). 48 h later the treatments were removed, and cells were washed with phosphate-buffered saline (PBS).
Initially, the effect of the complexes on the cell viability was determined by the 3-(4,5-dimethylthiazol-2-yl)-2,5-diphenyltetrazolium bromide (MTT) assay.[147] The cells were incubated for 2 h with 100 μL of culture medium together with 10 μL of MTT (Sigma-Aldrich) at 0.5 mg/mL. After discarding the medium, DMSO was added to each well to dissolve the purple formazan crystals. The absorbance of each well was determined on a Multiscan Plate Reader (Synergy 4, Biotek, Winooski) at a wavelength of 570 nm. Cell viability was also assessed using the CyQUANT Direct Cell Proliferation Assay (Thermo Fisher Scientific), following the manufacturer’s instructions. Briefly, after the treatments, the cells were washed with PBS, and an equal volume of culture medium and CyQUANT mix was added to each well. The plates were then incubated for 1 h at 37 °C. Subsequently, the fluorescence intensity was bottom read using a Multiscan Plate Reader (Synergy 4, Biotek, Winooski) with excitation and emission filters of 485 and 528 nm, respectively. In both assays, at least three replicates were measured for each treatment. The concentration that reduces the cell viability by 50% (IC50) was established using the Gen5 software (BioTek). Three independent experiments were carried out for each compound. […] The phototoxicity index (PI = IC50,dark/IC50,light) was determined.
To assess the photodynamic activity of the complexes, cells were incubated with the complexes for 4 h to enable their intracellular accumulation. The cells were then irradiated with light with a wavelength of 460 nm (blue), 530 nm (green), or 655 nm (red) for 1 h using a LED system (LuxLight) with an effective power of 6.7 mW cm^–2, which provides a total light dose of 24.1 J cm^–2. The LED system was positioned at 25 mm from the cell culture plates.

[2] = blue light 460 nm 1 h (24.1 J cm^–2), 48 h, read-out: IC50 blue light
[3] = green light 530 nm 1 h (24.1 J cm^–2), 48 h, read-out: IC50 green light
[4] = kept in the dark, viability after 48 h, read-out: IC50 dark
[5] = red light 655 nm 1 h (24.1 J cm^–2), 48 h, read-out: IC50 red light

Compound | IC50 (calf thymus DNA (CT-DNA)) [nM] | TON1h (NADH oxidation) ([1]; 470 nm blue light) | TON1h (NADH oxidation) ([1]; dark) | IC50 (A549 cancer cells; [2]) [nM] | IC50 (A549 cancer cells; [3]) [nM] | IC50 (A549 cancer cells; [4]) [nM] | PI green light (IC50,dark/IC50,light) (A549 cancer cells) | PI/Dose (A549 cancer cells; 530 nm) | IC50 (A549 cancer cells; [5]) [nM] | PI red light (IC50,dark/IC50,light) (A549 cancer cells) | PI blue light (IC50,dark/IC50,light) (A549 cancer cells) | PI/Dose (A549 cancer cells; 460 nm) | PI/Dose (A549 cancer cells; 655 nm)
Cc1c(C)c(C)[c-](C)c1C.[Cl][Ir]1[c]2cccc3c4nc5ccccc5nc4c4ccc[n+]1c4c23 [complex 1, [(η^5-C5Me5)IrCl(pbpz)]] | 192000 | 12.47 | 0.16 | 2900 ± 400 | 5800 ± 100 | 8000 ± 1000 | 1.4 |  |  |  |  |  | 
Cc1c(C)c(C)[c-](C)c1C.F[B-](F)(F)F.c1ccc2cc3nc4c5ccc[n+]6c5c5[c](cccc5c4nc3cc2c1)[Ir]6[n+]1cc[nH]c1 [complex 4, [(η^5-C5Me5)Ir(Im)(pbpn)]BF4] | 15900 | 9.71 | 0.31 | 3.2 ± 2 | 10 ± 3 | 2900 ± 1000 | 294 | 12.2 | 120 ± 50 | 25 |  |  | 
Cc1c(C)c(C)[c-](C)c1C.F[B-](F)(F)F.c1ccc2nc3c4ccc[n+]5c4c4[c](cccc4c3nc2c1)[Ir]5[n+]1ccn(CCN2CCCCC2)c1 [complex 5, [(η^5-C5Me5)Ir(Imepip)(pbpz)]BF4] | 54600 | 2.36 | 0.37 | 390 ± 100 | 520 ± 20 | 830 ± 20 | 1.6 |  |  |  | 2.1 |  | 
Cc1c(C)c(C)[c-](C)c1C.F[B-](F)(F)F.c1ccc2cc3nc4c5ccc[n+]6c5c5[c](cccc5c4nc3cc2c1)[Ir]6[n+]1ccn(CCN2CCCCC2)c1 [complex 6, [(η^5-C5Me5) Ir(Imepip)(pbpn)]BF4] | 32800 | 7.79 | 0.94 | 1.5 ± 0.5 | 11 ± 4 | 2000 ± 100 | 179 |  | 32 ± 10 | 63 |  | 54.6 | 2.6
Cc1c(C)c(C)[c-](C)c1C.F[B-](F)(F)F.c1ccc(Cn2cc[n+]([Ir]3[c]4cccc5c6nc7ccccc7nc6c6ccc[n+]3c6c45)c2)cc1 [complex 7, [(η^5-C5Me5)Ir(bzIm)(pbpz)]BF4] | 95400 | 4.54 | 0.12 | 650 ± 200 | 470 ± 40 | 770 ± 200 | 1.7 |  |  |  | 1.2 |  | 
Cc1c(C)c(C)[c-](C)c1C.F[B-](F)(F)F.c1ccc(Cn2cc[n+]([Ir]3[c]4cccc5c6nc7cc8ccccc8cc7nc6c6ccc[n+]3c6c45)c2)cc1 [complex 8, [(η^5-C5Me5)Ir(bzIm)(pbpn)]BF4] | 15900 | 5.75 | 0.14 | 0.2 ± 0.1 | 2.1 ± 0.4 | 150 ± 50 | 71 |  | 30 ± 20 | 5 |  |  | 
